Measurements from the NIST ThermoML archive (doi:10.1016/j.jct.2013.01.006).
Numbers after ± are expanded uncertainties.

Conditions: Liquid, Vibrating tube method

F/C=C/C(F)(F)F [trans-1,3,3,3-tetrafluoropropene]
Conditions	mass density [kg/m3]
283.55 K, 99990 kPa	1403.02 ± 1.8
283.56 K, 30000 kPa	1295.8 ± 0.59
283.56 K, 40000 kPa	1316.15 ± 0.69
283.56 K, 50000 kPa	1334.15 ± 0.82
283.56 K, 60000 kPa	1350.35 ± 0.99
283.56 K, 69990 kPa	1365.2 ± 1.2
283.56 K, 79990 kPa	1378.71 ± 1.4
283.56 K, 90000 kPa	1391.26 ± 1.6
283.57 K, 1000 kPa	1211.68 ± 0.52
283.57 K, 3000 kPa	1219.58 ± 0.5
283.57 K, 5000 kPa	1227.04 ± 0.49
283.57 K, 10000 kPa	1243.89 ± 0.48
283.57 K, 15000 kPa	1258.79 ± 0.48
283.57 K, 20000 kPa	1272.23 ± 0.51
283.57 K, 25000 kPa	1284.48 ± 0.55
293.41 K, 1000 kPa	1180.6 ± 0.55
293.41 K, 3000 kPa	1189.81 ± 0.53
293.41 K, 5000 kPa	1198.39 ± 0.51
293.41 K, 10000 kPa	1217.4 ± 0.49
293.41 K, 15000 kPa	1234.07 ± 0.49
293.41 K, 20000 kPa	1248.82 ± 0.5
293.41 K, 25000 kPa	1262.23 ± 0.53
293.41 K, 30000 kPa	1274.5 ± 0.57
293.41 K, 40000 kPa	1296.38 ± 0.67
293.41 K, 50000 kPa	1315.5 ± 0.79
293.41 K, 60000 kPa	1332.69 ± 0.94
293.41 K, 69990 kPa	1348.45 ± 1.1
293.41 K, 79990 kPa	1362.63 ± 1.3
293.41 K, 100010 kPa	1387.95 ± 1.7
293.42 K, 90000 kPa	1375.74 ± 1.5
303.38 K, 1000 kPa	1149.74 ± 0.65
303.38 K, 3000 kPa	1160.58 ± 0.59
303.39 K, 5000 kPa	1170.47 ± 0.55
303.39 K, 10000 kPa	1192.27 ± 0.51
303.39 K, 15000 kPa	1210.87 ± 0.5
303.39 K, 20000 kPa	1227.2 ± 0.51
303.39 K, 25000 kPa	1241.85 ± 0.52
303.39 K, 30000 kPa	1255.15 ± 0.56
303.39 K, 40000 kPa	1278.68 ± 0.64
303.39 K, 60000 kPa	1317.3 ± 0.9
303.4 K, 50000 kPa	1299.13 ± 0.76
303.4 K, 70000 kPa	1333.74 ± 1.1
303.4 K, 80010 kPa	1348.59 ± 1.3
303.4 K, 90000 kPa	1362.33 ± 1.5
303.4 K, 100000 kPa	1375.04 ± 1.6
313.33 K, 1000 kPa	1112.39 ± 0.71
313.33 K, 3000 kPa	1125.51 ± 0.65
313.34 K, 5000 kPa	1137.25 ± 0.6
313.34 K, 10000 kPa	1162.32 ± 0.54
313.35 K, 15000 kPa	1183.22 ± 0.51
313.35 K, 20000 kPa	1201.24 ± 0.5
313.35 K, 25000 kPa	1217.24 ± 0.52
313.36 K, 30000 kPa	1231.65 ± 0.54
313.36 K, 40000 kPa	1256.89 ± 0.62
313.36 K, 80000 kPa	1330.76 ± 1.2
313.36 K, 90000 kPa	1345.06 ± 1.4
313.36 K, 99990 kPa	1358.3 ± 1.6
313.37 K, 50000 kPa	1278.66 ± 0.72
313.37 K, 60000 kPa	1297.92 ± 0.85
313.37 K, 69990 kPa	1315.13 ± 1.1
323.14 K, 1000 kPa	1074.03 ± 0.83
323.15 K, 3000 kPa	1090.3 ± 0.76
323.15 K, 5000 kPa	1104.41 ± 0.67
323.15 K, 10000 kPa	1133.63 ± 0.58
323.15 K, 15000 kPa	1157.19 ± 0.53
323.15 K, 20000 kPa	1177.23 ± 0.51
323.15 K, 25000 kPa	1194.71 ± 0.51
323.15 K, 30000 kPa	1210.33 ± 0.53
323.15 K, 40000 kPa	1237.43 ± 0.6
323.15 K, 50000 kPa	1260.55 ± 0.69
323.15 K, 60000 kPa	1280.78 ± 0.81
323.15 K, 69990 kPa	1299.16 ± 1
323.15 K, 80000 kPa	1315.46 ± 1.2
323.15 K, 90000 kPa	1330.39 ± 1.3
323.15 K, 100000 kPa	1344.16 ± 1.5
333.06 K, 3000 kPa	1051.57 ± 0.91
333.06 K, 5000 kPa	1068.99 ± 0.76
333.07 K, 10000 kPa	1103.45 ± 0.64
333.07 K, 15000 kPa	1130.26 ± 0.56
333.07 K, 20000 kPa	1152.47 ± 0.53
333.07 K, 25000 kPa	1171.67 ± 0.51
333.08 K, 30000 kPa	1188.58 ± 0.52
333.08 K, 40000 kPa	1217.68 ± 0.57
333.08 K, 50000 kPa	1242.22 ± 0.66
333.09 K, 60000 kPa	1263.59 ± 0.77
333.09 K, 70000 kPa	1282.87 ± 1
333.1 K, 79990 kPa	1299.88 ± 1.1
333.1 K, 89990 kPa	1315.41 ± 1.3
333.1 K, 99990 kPa	1329.71 ± 1.5
343.06 K, 3000 kPa	1007.98 ± 1.2
343.07 K, 5000 kPa	1030.29 ± 0.91
343.07 K, 10000 kPa	1071.6 ± 0.71
343.07 K, 15000 kPa	1102.25 ± 0.6
343.07 K, 20000 kPa	1127.03 ± 0.54
343.07 K, 25000 kPa	1148.05 ± 0.52
343.07 K, 30000 kPa	1166.47 ± 0.51
343.07 K, 40000 kPa	1197.69 ± 0.55
343.07 K, 50000 kPa	1223.79 ± 0.64
343.07 K, 60000 kPa	1246.3 ± 0.74
343.07 K, 70000 kPa	1266.4 ± 0.99
343.08 K, 79990 kPa	1284.18 ± 1.1
343.08 K, 90000 kPa	1300.35 ± 1.2
343.08 K, 100000 kPa	1315.2 ± 1.4
352.97 K, 3000 kPa	957.49 ± 1.6
352.97 K, 60000 kPa	1229.3 ± 0.71
352.97 K, 70000 kPa	1250.62 ± 0.97
352.97 K, 79990 kPa	1269.19 ± 1.1
352.97 K, 89990 kPa	1285.98 ± 1.2
352.97 K, 99990 kPa	1301.43 ± 1.4
352.98 K, 5000 kPa	987.78 ± 1.1
352.98 K, 15000 kPa	1073.64 ± 0.65
352.98 K, 20000 kPa	1101.36 ± 0.57
352.98 K, 25000 kPa	1124.45 ± 0.53
352.98 K, 30000 kPa	1144.41 ± 0.51
352.98 K, 40000 kPa	1177.85 ± 0.54
352.98 K, 50000 kPa	1205.56 ± 0.61
352.99 K, 10000 kPa	1038.43 ± 0.82
362.93 K, 3000 kPa	894.35 ± 2.5
362.93 K, 5000 kPa	939.3 ± 1.5
362.94 K, 10000 kPa	1003.24 ± 0.96
362.94 K, 15000 kPa	1044.15 ± 0.72
362.94 K, 20000 kPa	1075.24 ± 0.6
362.94 K, 25000 kPa	1100.62 ± 0.54
362.94 K, 30000 kPa	1122.31 ± 0.51
362.95 K, 40000 kPa	1158.16 ± 0.53
362.95 K, 50000 kPa	1187.53 ± 0.58
362.95 K, 60000 kPa	1212.48 ± 0.68
362.95 K, 70010 kPa	1234.72 ± 0.95
362.95 K, 80000 kPa	1254.07 ± 1
362.96 K, 90000 kPa	1271.47 ± 1.1
362.96 K, 99990 kPa	1287.46 ± 1.3
